Measured values from the NIST ThermoML archive (doi:10.1021/je300799f).

Legend:
[1] = Liquid; for mass density: 101.3 kPa, Vibrating tube method; for vapor or sublimation pressure: Ebulliometric method (Recirculating still)
[2] = refractive index (Na D-line) (dimensionless); conditions: 298.15 K; 101.33 kPa; Liquid; Standard Abbe refractometry
[3] = xn = mol fraction of the nth substance listed; conditions: 101 kPa, Liquid, Vibrating tube method, x2 = 0

CCCC(=O)OCC [ethyl butanoate]
[1]
Conditions | mass density [kg/m3] | vapor or sublimation pressure [kPa]
288.15 K | 884.01 | –
298.15 K | 873.5 | –
308.15 K | 862.85 | –
318.15 K | 852.26 | –
328.15 K | 841.55 | –
377.33 K | – | 60
378.63 K | – | 62.5
379.81 K | – | 65
380.99 K | – | 67.5
382.1 K | – | 70
383.23 K | – | 72.5
384.31 K | – | 75
385.34 K | – | 77.5
386.35 K | – | 80
387.34 K | – | 82.5
388.31 K | – | 85
389.25 K | – | 87.5
390.17 K | – | 90
391.06 K | – | 92.5
391.94 K | – | 95
392.81 K | – | 97.5
393.66 K | – | 100
394.26 K | – | 101.32
394.31 K | – | 101.32
395.43 K | – | 105
397.05 K | – | 110
398.57 K | – | 115
400.1 K | – | 120
401.54 K | – | 125
402.99 K | – | 130
404.34 K | – | 135
405.62 K | – | 140
406.96 K | – | 145
408.22 K | – | 150
409.45 K | – | 155
410.61 K | – | 160
411.77 K | – | 165
412.95 K | – | 170
414.05 K | – | 175
415.01 K | – | 180
416.08 K | – | 185
417.14 K | – | 190
418.15 K | – | 195
419.14 K | – | 200
420.12 K | – | 205
421.1 K | – | 210
422.01 K | – | 215
422.94 K | – | 220
423.85 K | – | 225
424.79 K | – | 230
425.67 K | – | 235
426.53 K | – | 240
427.35 K | – | 245
428.2 K | – | 250
429.04 K | – | 255
429.84 K | – | 260
430.65 K | – | 265
431.42 K | – | 270
432.23 K | – | 275
433 K | – | 280

Conditions | refractive index
[2] | 1.3898

CCCCCCC [heptane]
[1]
Conditions | mass density [kg/m3] | vapor or sublimation pressure [kPa]
288.15 K | 688.16 | –
298.15 K | 679.62 | –
308.15 K | 670.96 | –
318.15 K | 662.33 | –
328.15 K | 653.61 | –
346.23 K | – | 45
347.76 K | – | 47.5
349.29 K | – | 50
350.7 K | – | 52.5
352.07 K | – | 55
353.41 K | – | 57.5
354.69 K | – | 60
355.94 K | – | 62.5
357.14 K | – | 65
358.32 K | – | 67.5
359.45 K | – | 70
360.54 K | – | 72.5
361.61 K | – | 75
362.66 K | – | 77.5
363.68 K | – | 80
364.71 K | – | 82.5
365.65 K | – | 85
366.61 K | – | 87.5
367.53 K | – | 90
368.42 K | – | 92.5
369.32 K | – | 95
370.19 K | – | 97.5
371.07 K | – | 100
371.38 K | – | 101.32
371.51 K | – | 101.32
372.72 K | – | 105
374.31 K | – | 110
375.85 K | – | 115
377.34 K | – | 120
378.77 K | – | 125
380.18 K | – | 130
381.52 K | – | 135
382.84 K | – | 140
384.13 K | – | 145
385.36 K | – | 150
386.6 K | – | 155
387.78 K | – | 160
388.94 K | – | 165
390.08 K | – | 170
391.17 K | – | 175
392.25 K | – | 180
393.3 K | – | 185
394.34 K | – | 190
395.37 K | – | 195
396.37 K | – | 200
397.35 K | – | 205
398.29 K | – | 210
399.24 K | – | 215
400.17 K | – | 220
401.07 K | – | 225
401.97 K | – | 230
402.84 K | – | 235
403.72 K | – | 240
404.57 K | – | 245
405.42 K | – | 250
406.25 K | – | 255
407.05 K | – | 260
407.87 K | – | 265
408.65 K | – | 270
409.42 K | – | 275
410.22 K | – | 280

Conditions | refractive index
[2] | 1.3853

CCCCCCC [heptane] + CCCC(=O)OC
[3]
Conditions | mass density [kg/m3]
288.15 K | 688.16
298.15 K | 679.62
308.15 K | 670.96
318.15 K | 662.33
328.15 K | 653.61

CCCCCCC [heptane] + CCCC(=O)OCC
[3]
Conditions | mass density [kg/m3]
288.15 K | 688.16
298.15 K | 679.62
308.15 K | 670.96
318.15 K | 662.33
328.15 K | 653.61

CCCC(=O)OC [methyl butanoate]
[1]
Conditions | mass density [kg/m3] | vapor or sublimation pressure [kPa]
288.15 K | 903.31 | –
298.15 K | 892.31 | –
308.15 K | 881.19 | –
318.15 K | 870.06 | –
328.15 K | 858.8 | –
354.1 K | – | 50
355.47 K | – | 52.5
356.79 K | – | 55
358.1 K | – | 57.5
359.34 K | – | 60
360.56 K | – | 62.5
361.72 K | – | 65
362.84 K | – | 67.5
363.94 K | – | 70
364.99 K | – | 72.5
366.05 K | – | 75
367.04 K | – | 77.5
368.03 K | – | 80
369 K | – | 82.5
370.01 K | – | 85
370.93 K | – | 87.5
371.84 K | – | 90
372.72 K | – | 92.5
373.58 K | – | 95
374.42 K | – | 97.5
375.27 K | – | 100
375.74 K | – | 101.32
376.91 K | – | 105
378.42 K | – | 110
379.91 K | – | 115
381.34 K | – | 120
382.73 K | – | 125
384.07 K | – | 130
385.37 K | – | 135
386.63 K | – | 140
387.87 K | – | 145
389.07 K | – | 150
390.24 K | – | 155
391.38 K | – | 160
392.48 K | – | 165
393.58 K | – | 170
394.64 K | – | 175
395.67 K | – | 180
396.7 K | – | 185
397.68 K | – | 190
398.67 K | – | 195
399.61 K | – | 200
400.54 K | – | 205
401.46 K | – | 210
402.37 K | – | 215
403.25 K | – | 220
404.13 K | – | 225
404.97 K | – | 230
405.81 K | – | 235
406.64 K | – | 240
407.45 K | – | 245
408.26 K | – | 250
409.05 K | – | 255
409.83 K | – | 260
410.58 K | – | 265
411.35 K | – | 270
412.09 K | – | 275
412.83 K | – | 280

Conditions | refractive index
[2] | 1.3851

CCCCCCCCC [nonane]
[1]
Conditions | mass density [kg/m3] | vapor or sublimation pressure [kPa]
288.15 K | 721.65 | –
298.15 K | 713.85 | –
308.15 K | 705.96 | –
318.15 K | 698.06 | –
328.15 K | 690.17 | –
395.53 K | – | 45
397.25 K | – | 47.5
398.89 K | – | 50
400.5 K | – | 52.5
402.04 K | – | 55
403.51 K | – | 57.5
404.94 K | – | 60
406.33 K | – | 62.5
407.66 K | – | 65
408.95 K | – | 67.5
410.24 K | – | 70
411.45 K | – | 72.5
412.64 K | – | 75
413.81 K | – | 77.5
414.94 K | – | 80
416.07 K | – | 82.5
417.16 K | – | 85
418.22 K | – | 87.5
419.24 K | – | 90
420.25 K | – | 92.5
421.24 K | – | 95
422.22 K | – | 97.5
423.18 K | – | 100
423.87 K | – | 101.32
423.9 K | – | 101.32
425.1 K | – | 105
426.76 K | – | 110
428.48 K | – | 115
430.15 K | – | 120
431.71 K | – | 125
433.28 K | – | 130
434.77 K | – | 135
436.25 K | – | 140
437.64 K | – | 145
439.03 K | – | 150
440.38 K | – | 155
441.68 K | – | 160
442.99 K | – | 165
444.25 K | – | 170
445.46 K | – | 175
446.65 K | – | 180
447.83 K | – | 185
448.99 K | – | 190
450.12 K | – | 195
451.2 K | – | 200
452.29 K | – | 205
453.35 K | – | 210
454.41 K | – | 215
455.44 K | – | 220
456.45 K | – | 225
457.45 K | – | 230
458.43 K | – | 235
459.41 K | – | 240
460.35 K | – | 245
461.28 K | – | 250
462.19 K | – | 255
463.08 K | – | 260
463.95 K | – | 265
464.86 K | – | 270
465.73 K | – | 275
466.59 K | – | 280

Conditions | refractive index
[2] | 1.4032

CCCCCCCCC [nonane] + CCCC(=O)OC
[3]
Conditions | mass density [kg/m3]
288.15 K | 721.65
298.15 K | 713.85
308.15 K | 705.96
318.15 K | 698.06
328.15 K | 690.17

CCCCCCCCC [nonane] + CCCC(=O)OCC
[3]
Conditions | mass density [kg/m3]
288.15 K | 721.65
298.15 K | 713.85
308.15 K | 705.96
318.15 K | 698.06
328.15 K | 690.17
